The source of these data is patent US7268108B2, “Alpha-melanocyte stimulating hormone derivatives and cosmetic application thereof” (Institut European de Biologie Cellulaire, priority 2002, dated 2007).

The test system of this data set is cutaneous melanogenesis. Briefly: double-blind study of melanostimulant effects by topical administration in humans. Format: in vivo. Conditions: gel at 10 ppm, topical twice a day for 3 weeks, listed as peptide no. 1. The method, then:
2. A double-blind study of the melanostimulant effects by topical administration of peptide no. 1 in the table was carried out in humans.
A gel of peptide no. 1 at 10 ppm and its placebo were applied, twice a day for 3 weeks, to the inner face of the forearms of twelve normal volunteers who had given their informed consent. Since the arms were not exposed to the sun, they were given an exactly calibrated artificial solar exposure of 0.6 MED (minimum erythema dose) once a day from the 16th to 20th day.
24 h after the final treatment, a clinical evaluation of the treated regions was carried out blind, and the intensity of coloration was marked according to a five-level index scale. A biopsy sample was then taken in order to quantify the melanin produced and to evaluate the ultrastructural consequences of the treatment.
The quantification of the epidermal melanin was carried out on histological sections by image analysis after labeling with AgNO3. Only the active layers of the epidermis were analyzed (from the stratum germinativum to the stratum spinosum), using the Leica Quantimet after digitization (Sony CCD camera).
The ultrastructural analysis of the melanocytes and melanosomes was carried out by electron microscopy. A double-contrast technique was used on the thin sections, which were then observed at magnifications ranging up to ×12000 (Jeol 1200EX).

Entries after “also recorded” stand apart in the source; their conditions may differ. Where a SMILES comes first, the peptide text is derived from it. [ ]: non-standard residue; d: D form. Nle = CCCC[C@H](N)C(=O)O

In the case of `CCCC[C@H](NC(C)=O)C(=O)N[C@@H](C)C(=O)N[C@@H](Cc1c[nH]cn1)C(=O)N[C@H](Cc1ccccc1)C(=O)N[C@@H](CCCNC(=N)N)C(=O)N[C@@H](Cc1c[nH]c2ccccc12)C(N)=O` [Compound 1, Ac-Nle-Ala-His-DPhe-Arg-Trp-NH2] (Ac-[Nle]AH[dF]RW-NH2), the “local tolerance (clinical observation of the treated regions)” value is given as “no sign of intolerance; also recorded: completely tolerated at the local level”.
